US20230240958A1, “COSMETIC COMPOSITION WITH ENHANCED COLOR STABILITY FOR RETINOIC ACID PRECURSOR” (Conopco, Inc., d/b/a UNILEVER, priority 2020, published 2023)

Experiment: Color stability by LabScan XE (CIELAB L*, a*, b*, ΔE) after storage
Type: physicochemical
Conditions: Examples 3 and 4

color stability / ΔE over time, comparison in words: greater color stability
Structure (SMILES): CCCCCCCCCCCCCC(=O)OC(C)C [isopropyl myristate]
